Reference: patent publication US20070149509A1, “Use of vitamin e” (priority 2003, published 2007)

Tested on: melatonin receptor type 1 gene (MT1)
Test: Impact of vitamin E on melatonin receptor expression in rat brain (high-density oligonucleotide microarrays)
Type: in vivo
Details: male rats, vitamin E containing diet vs vitamin E deficient diet, monitored over 9 months at 4 time-points, brain/hippocampus
Procedure: The impact of vitamin E on melatonin receptor expression in rat hippocampus was determined as follows: Two groups of male rats were randomly assigned to either a VE sufficient diet or to a diet deficient in VE for 270 days. High-density oligonucleotide microarrays comprising over 7,000 genes were used to assess the transcriptional response of the brain. Differential gene expression was monitored over a period of 9 months, at 4 different time-points.

melatonin receptor type 1 gene (MT1) expression in the brain: strongly and consistently up-regulated
Substance: vitamin E
